Measured values: patent US20030190289A1, “Formulations containing a glucocorticoid drug for the treatment of bronchopulmonary diseases” (priority 2000, published 2003)

What was measured:
[1] = cited from earlier work; for Rank order of topical activity: comparison between rac-BUD and its two epimers, Clissold et al.
[2] = Clissold et al. 1984, Edbäcker et al. 1987; cited from earlier work
[3] = Chemical and physical stability in solution; type: physicochemical; conditions: solution formulations
Method: In WO 00/30608 published on Jun.
In the same application, further 22R-BUD solution compositions in HFA 134a or 227 are described whose relevant respirable dose and the respirable fraction have been determined. In these compositions, the concentration of the active ingredient is comprised between 0.06% and 0.14% w/v equivalent to single doses of w 60, 63 and 70 μg, respectively. However, although said formulations give rise to good performances in term of respirable fraction due to the low amount of ethanol, the polarity of the whole solvent system constituted of 7-8% w/w of ethanol and 0.9% w/w of isopropyl myristate or PEG 400 is too low, leading to physical stability problem, i.e. partial precipitation of the active ingredient, after storage under stress conditions.

[4] = HFA propellant containing ethanol and optionally a low volatility component; inhalers with internal surface of stainless steel, anodized aluminum or epoxy phenol resin lining; WO 00/30608; cited from earlier work
[5] = Solubility in ethanol and ethanol/HFA mixtures; type: physicochemical; conditions: in ethanol and mixtures containing ethanol and HFA134a or ethanol and HFA227
[6] = Pharmacokinetic and metabolic profile / systemic exposure of the epimers; type: in vivo; conditions: studies carried out by the applicant
[7] = studies in the animals; Clissold et al. 1984, Edbäcker et al. 1987; cited from earlier work

Structure (SMILES) | Ratio of topical to systemic activity ([1]; compared with other corticosteroids) | Rank order of topical activity [1] | Pharmacokinetic and metabolic profile versus (22S) epimer [2] | Chemical degradation tendency versus corresponding epimer [3] | Stability in solution [4] | Solubility versus corresponding epimer [5] | Systemic exposure versus corresponding epimer [6] | Potency relative to the corresponding (22S) epimer [7]
CCCC1O[C@@H]2C[C@H]3[C@@H]4CCC5=CC(=O)C=C[C@]5(C)[C@H]4[C@@H](O)C[C@]3(C)[C@]2(C(=O)CO)O1 (mixture of isomers) [rac-BUD, Budesonide] | high ratio of topical to systemic activity | 22R >rac-BUD >22S |  |  |  |  |  | 
CCC[C@@H]1O[C@@H]2C[C@H]3[C@@H]4CCC5=CC(=O)C=C[C@]5(C)[C@H]4[C@@H](O)C[C@]3(C)[C@]2(C(=O)CO)O1 [Composition 22R-BUD, (22R)-budesonide] |  | 22R >rac-BUD >22S | different pharmacokinetic and metabolic profile | higher tendency to exhibit chemical degradation than its corresponding epimer | stable in solution | significantly less soluble than its corresponding epimer | different from that of its corresponding epimer | 2 to 3 times
CCCC1OC2CC3C4CCC5=CC(=O)C=CC5(C)C4C(O)CC3(C)C2(C(=O)CO)O1 (stereo not shown) [Composition 22S] |  | 22R >rac-BUD >22S |  |  |  |  |  | 
